This note sets out measurements from ChEMBL document CHEMBL4808219, “Exploration of Benzo[b]carbazole-6,11-diones as anticancer agents: Synthesis and studies of hTopoIIα inhibition and apoptotic effects” (Bioorg Med Chem Lett, 2021).

SMILES strings stand for the structures. pIC50: −log10 of the molar value. Active and inactive are the calls of the source. The calls are words filed in the database; no cut-off is given here.

The subject of experiment [1] is MDA-MB-231. Nature of the experiment: Cytotoxicity against human MDA-MB-231 cells assessed as apoptotic nuclei at 5 uM by DAPI staining based fluorescence microscopic analysis (reference value: 4.17 to 6.67%). The experiment is classed as functional.
Experiment [2] has as its system MDA-MB-231. Nature of the experiment: Induction of apoptosis in human MDA-MB-231cells as increase in cleaved PARP1 level by measuring fold change in cleaved PARP1 expression by Western blot analysis relative to control. The experiment is classed as functional.
Experiment [3] in a line: Cytotoxicity against human H357 cells assessed as reduction in cell viability incubated for 48 hrs by MTT assay. Particulars: Homo sapiens, H357, 48 h; read-out: IC50. The experiment is classed as functional, cell-based.
In experiment [4] the test system is MDA-MB-231. The experiment is described as follows: Cytotoxicity against human MDA-MB-231 cells assessed as apoptotic nuclei at 2 uM by DAPI staining based fluorescence microscopic analysis (reference value: 4.17 to 14.29%). It counts as functional.
The subject of experiment [5] is MDA-MB-231. Nature of the experiment: Cytotoxicity against human MDA-MB-231 cells assessed as apoptotic nuclei at 1 uM by DAPI staining based fluorescence microscopic analysis (reference value: 4.17 to 14.29%). It counts as functional.
The test system of experiment [6] is MCF-10A. The experiment is described as follows: Cytotoxicity against human MCF-10A cells. It counts as cell-based.
Experiment [7] relates to MDA-MB-231. The experiment is described as follows: Induction of apoptosis in human MDA-MB-231cells assessed as downregulation of Bcl-xl level by measuring fold change in Bcl-xl expression by Western blot analysis relative to control. It counts as functional.
Experiment [8] concerns MDA-MB-231. Nature of the experiment: Cytotoxicity against human MDA-MB-231 cells assessed as normal nuclei at 2 uM by DAPI staining based fluorescence microscopic analysis (reference value: 85.71 to 95.83%). The experiment is classed as functional.
The subject of experiment [9] is MDA-MB-231. Nature of the experiment: Induction of apoptosis in human MDA-MB-231 cells assessed as upregulation of Bax level by measuring fold change in Bax expression by Western blot analysis relative to control. The experiment is classed as functional.
For experiment [10], the system named is MDA-MB-231. Nature of the experiment: Cytotoxicity against human MDA-MB-231 cells assessed as normal nuclei at 4 uM by DAPI staining based fluorescence microscopic analysis (reference value: 93.33 to 95.83%). It counts as functional.
Experiment [11] deals with HEK-293T. The experiment is described as follows: Cytotoxicity against human HEK293T cells assessed as reduction in cell viability incubated for 48 hrs by MTT assay. It counts as cell-based.
Experiment [12] deals with MDA-MB-231. The experiment is described as follows: Cytotoxicity against human MDA-MB-231 cells assessed as apoptotic nuclei at 4 uM by DAPI staining based fluorescence microscopic analysis (reference value: 4.17 to 6.67%). The experiment is classed as functional.
In experiment [13] the test system is MCF7. The experiment is described as follows: Cytotoxicity against human MCF7 cells assessed as reduction in cell viability incubated for 48 hrs by MTT assay. It counts as functional, cell-based. As to conditions: Homo sapiens, MCF7, 48 h; read-out: IC50.
Experiment [14] relates to MDA-MB-231. The experiment is described as follows: Genotoxicity in human MDA-MB-231 cells assessed as induction of DNA damage at 3 uM incubated for 24 hrs by comet assay. It counts as functional, cell-based.
Experiment [15] concerns MDA-MB-231. The experiment is described as follows: Cytotoxicity against human MDA-MB-231 cells assessed as normal nuclei at 5 uM by DAPI staining based fluorescence microscopic analysis (reference value: 93.33 to 95.83%). It counts as functional.
In experiment [16] the test system is MDA-MB-231. The experiment is described as follows: Cytotoxicity against human MDA-MB-231 cells assessed as apoptotic nuclei at 3 uM by DAPI staining based fluorescence microscopic analysis (reference value: 4.17 to 6.67%). It counts as functional.
The subject of experiment [17] is MDA-MB-231. Nature of the experiment: Cytotoxicity against human MDA-MB-231 cells assessed as normal nuclei at 3 uM by DAPI staining based fluorescence microscopic analysis (reference value: 93.33 to 95.83%). The experiment is classed as functional.
For experiment [18], the system named is MDA-MB-231. Nature of the experiment: Cytotoxicity against human MDA-MB-231 cells assessed as increase in deformation and shrinkage of nuclei by DAPI staining-based fluorescence microscopic analysis. As to conditions: dose 0.5-2.5 µM. The experiment is classed as functional, cell-based.
For experiment [19], the system named is MDA-MB-231. Nature of the experiment: Cytotoxicity against human MDA-MB-231 cells assessed as reduction in cell survival by clonogenic assay. The experiment is classed as functional, cell-based.
In experiment [20] the test system is MDA-MB-231. Nature of the experiment: Cytotoxicity against human MDA-MB-231 cells assessed as normal nuclei at 1 uM by DAPI staining based fluorescence microscopic analysis (reference value: 85.71 to 95.83%). The experiment is classed as functional.
For experiment [21], the system named is MDA-MB-231. Nature of the experiment: Cytotoxicity against human MDA-MB-231 cells assessed as reduction in cell viability incubated for 48 hrs by MTT assay. The experiment is classed as functional, cell-based. As to conditions: Homo sapiens, MDA-MB-231, 48 h; read-out: IC50.

Regarding `O=C1C=C(Nc2cccc3ccccc23)C(=O)c2ccccc21`, the Activity in experiment [1] is given as 88.89%; in experiment [4], 28.57%; in experiment [5], 11.9%; in [8] it was 71.43%; in experiment [10] it was 25.64%; in experiment [12], 74.36%. Further, the Activity in [15] is 11.11%; in [16], 55.56%; in experiment [17], 44.44%; in experiment [18] it was “Dose-Dependent Effect”; in [20], 88.1%. Besides, the results for the “fold change (FC)” value in experiment [2], in experiment [7] and in experiment [9] were 0.8, 0.4 and 2.3, respectively. For the same molecule, the pIC50 in experiment [3] is 5.24; in experiment [6], 4.00; in experiment [11] it was 5.25; in experiment [13] it was 5.51; in [19], 5.62; in experiment [21], 5.49. Further, the result in experiment [14] was Active.

Consider `O=C1c2cccc(O)c2C(=O)c2c1[nH]c1ccccc21`, for which the Activity in experiment [1] was 73.33%; in experiment [4], 36.36%; in [5], 25.93%; in [8] it was 63.64%; in [10], 44.44%; in experiment [12] it was 55.56%. For the same molecule, the Activity is 26.67% in experiment [15]; 48.48% in [16]; 51.52% in [17]; “Dose-Dependent Effect” in [18]; 74.07% in experiment [20]. Further, the “fold change (FC)” value was determined as 1 in [2], 0.2 in experiment [7] and 2.2 in [9]. The pIC50 in [3] was 5.44; in experiment [6], 3.98; in experiment [11] it was 5.40; in [13], 5.52; in experiment [19] it was 5.57; in [21] it was 5.49. The result in experiment [14] was Active.
